Laboratory results: patent US11591323B2, “Muscarinic agonists as non-steroidal and non-opioid analgesics and methods of use thereof” (Barry University, priority 2019, dated 2023)
Where “and” joins values, the source holds several entries; their conditions need not be identical. Identical values can stand only once. Like-named read-outs stand apart in the source and are kept apart here.

Assays:
Set-up in all cases: host or cells: CHO cells, stably transfected
M1 muscarinic receptor = biological target: T1, M1 muscarinic receptor (Homo sapiens, UniProt P11229); assay: accumulation of inositol phosphates IPX, M1 CHO cells (M1Gq); type: cell-based
T1 sequence (P11229 1-460): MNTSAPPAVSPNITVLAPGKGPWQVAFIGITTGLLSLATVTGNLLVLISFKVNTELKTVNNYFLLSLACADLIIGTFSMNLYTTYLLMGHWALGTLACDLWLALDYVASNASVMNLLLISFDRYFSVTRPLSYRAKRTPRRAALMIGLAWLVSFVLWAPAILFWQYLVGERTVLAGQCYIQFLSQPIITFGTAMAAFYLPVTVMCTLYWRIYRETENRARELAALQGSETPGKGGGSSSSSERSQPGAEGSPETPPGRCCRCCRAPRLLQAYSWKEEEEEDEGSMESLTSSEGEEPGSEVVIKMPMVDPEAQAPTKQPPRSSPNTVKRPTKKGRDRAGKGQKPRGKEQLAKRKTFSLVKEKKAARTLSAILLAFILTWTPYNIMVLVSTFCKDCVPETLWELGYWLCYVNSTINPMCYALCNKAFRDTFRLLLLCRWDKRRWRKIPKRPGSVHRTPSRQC

M5 muscarinic receptor = biological target: T2, M5 muscarinic receptor (Homo sapiens, UniProt P08912); assay: accumulation of IPX, M5 CHO cells (M5Gq); type: cell-based
T2 sequence (P08912 1-532): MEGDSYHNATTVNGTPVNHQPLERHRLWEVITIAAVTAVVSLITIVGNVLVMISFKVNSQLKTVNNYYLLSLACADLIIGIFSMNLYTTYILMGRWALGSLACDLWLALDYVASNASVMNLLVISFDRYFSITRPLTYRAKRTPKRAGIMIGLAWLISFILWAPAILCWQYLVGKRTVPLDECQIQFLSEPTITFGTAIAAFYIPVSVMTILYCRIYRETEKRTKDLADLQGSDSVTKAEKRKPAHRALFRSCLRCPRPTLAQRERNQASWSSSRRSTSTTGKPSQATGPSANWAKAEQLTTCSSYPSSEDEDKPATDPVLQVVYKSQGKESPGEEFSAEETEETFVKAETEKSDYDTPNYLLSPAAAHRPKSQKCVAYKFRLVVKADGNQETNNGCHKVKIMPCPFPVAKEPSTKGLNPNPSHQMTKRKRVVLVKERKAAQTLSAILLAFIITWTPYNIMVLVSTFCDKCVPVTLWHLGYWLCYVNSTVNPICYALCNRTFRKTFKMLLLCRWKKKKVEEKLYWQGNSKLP

M2 muscarinic receptor = biological target: T3, M2 muscarinic receptor (Homo sapiens, UniProt P08172); assay: inhibition of forskolin-stimulated cAMP, M2 CHO cells (M2Gi); type: cell-based
T3 sequence (P08172 1-466): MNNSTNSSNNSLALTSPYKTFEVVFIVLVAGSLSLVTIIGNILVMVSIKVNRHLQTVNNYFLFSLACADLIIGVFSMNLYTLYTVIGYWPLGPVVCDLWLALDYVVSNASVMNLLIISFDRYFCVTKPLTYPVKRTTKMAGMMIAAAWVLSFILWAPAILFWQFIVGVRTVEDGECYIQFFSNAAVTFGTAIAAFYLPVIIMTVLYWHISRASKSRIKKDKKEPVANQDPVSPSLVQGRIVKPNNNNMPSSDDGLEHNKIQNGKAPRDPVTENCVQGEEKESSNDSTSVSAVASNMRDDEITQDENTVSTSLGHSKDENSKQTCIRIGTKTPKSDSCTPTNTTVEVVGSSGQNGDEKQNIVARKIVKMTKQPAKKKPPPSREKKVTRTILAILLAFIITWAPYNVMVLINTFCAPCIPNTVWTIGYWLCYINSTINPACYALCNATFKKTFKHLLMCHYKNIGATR

M3 muscarinic receptor = M3 muscarinic receptor (Homo sapiens, UniProt P20309); assay: [3H]NMS competition binding, M3 CHO membranes
M3 muscarinic receptor, sequence (P20309 whole entry): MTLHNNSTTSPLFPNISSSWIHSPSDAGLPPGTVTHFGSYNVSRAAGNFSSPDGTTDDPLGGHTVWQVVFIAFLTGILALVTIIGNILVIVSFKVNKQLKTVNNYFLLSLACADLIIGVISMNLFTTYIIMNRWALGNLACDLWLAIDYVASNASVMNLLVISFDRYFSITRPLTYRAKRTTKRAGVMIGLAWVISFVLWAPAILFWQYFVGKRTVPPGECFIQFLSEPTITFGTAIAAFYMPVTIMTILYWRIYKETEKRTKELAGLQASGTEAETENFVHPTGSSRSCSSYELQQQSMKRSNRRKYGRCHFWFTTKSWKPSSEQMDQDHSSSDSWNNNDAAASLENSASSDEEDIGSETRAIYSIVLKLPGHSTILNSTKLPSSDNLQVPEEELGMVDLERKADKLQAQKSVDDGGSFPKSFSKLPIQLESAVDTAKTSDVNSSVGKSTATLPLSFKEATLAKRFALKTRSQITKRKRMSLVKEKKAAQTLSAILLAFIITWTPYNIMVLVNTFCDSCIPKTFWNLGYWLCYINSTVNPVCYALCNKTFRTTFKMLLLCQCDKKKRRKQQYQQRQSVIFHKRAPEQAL

M4 muscarinic receptor [1] = biological target: T4, M4 muscarinic receptor (Homo sapiens, UniProt P08173); assay: [3H]NMS competition binding, M4 CHO membranes
T4 sequence (P08173 1-479): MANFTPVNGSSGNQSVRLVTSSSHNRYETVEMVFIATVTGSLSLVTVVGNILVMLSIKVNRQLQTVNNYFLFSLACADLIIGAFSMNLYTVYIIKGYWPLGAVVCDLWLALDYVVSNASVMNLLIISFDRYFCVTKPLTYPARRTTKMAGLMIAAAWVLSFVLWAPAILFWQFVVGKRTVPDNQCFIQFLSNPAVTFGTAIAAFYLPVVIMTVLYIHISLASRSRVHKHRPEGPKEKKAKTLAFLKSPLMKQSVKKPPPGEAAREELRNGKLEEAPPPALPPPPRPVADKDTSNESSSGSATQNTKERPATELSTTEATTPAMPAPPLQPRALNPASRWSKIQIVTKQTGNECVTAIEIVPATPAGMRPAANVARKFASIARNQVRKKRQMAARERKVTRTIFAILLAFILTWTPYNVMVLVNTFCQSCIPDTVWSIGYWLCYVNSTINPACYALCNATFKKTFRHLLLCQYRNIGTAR

M4 muscarinic receptor [2] = biological target: T4, M4 muscarinic receptor; assay: inhibition of forskolin-stimulated cAMP, M4 CHO cells (M4Gi); type: cell-based; conditions: for Emax: CHO
[3] = M5 (↑IPX), preferential response, Table 7
[4] = M5 (↑IPX), preferential response, relative to carbachol, Tables 2, 3, 7
[5] = M2 (↓cAMP), preferential response, Table 7, operational efficacy
[6] = M2 (↓cAMP), preferential response, relative to carbachol, Tables 2, 3, 7
[7] = M2 (↓cAMP), preferential response, to carbachol, Tables 2, 3, 7
[8] = M4 (↓cAMP), preferential response, Table 7, operational efficacy
[9] = M4 (↓cAMP), preferential response, relative to carbachol, Tables 2, 3, 7
[10] = M4 (↓cAMP), preferential response, to carbachol, Tables 2, 3, 7

With `O=C1CCCN1CC#CCN1CCCC1` [oxotremorine, reference compound] the Kd (M1 muscarinic receptor) was 200 nM, the RAi (M1 muscarinic receptor) was 3.71 ± 0.29 and 3.84 ± 0.28 and the pKA (M1 muscarinic receptor) was 6.7 ± 0.1. For the same compound, the “Δlog(τ/KA)” value (M1 muscarinic receptor) was −0.57 ± 0.06 and −0.58 ± 0.05, the τ (M1 muscarinic receptor) was 2.55 ± 0.25 and 2.6 ± 0.3 and the EC50 (M1 muscarinic receptor; pEC50) was 52.5 nM and 55 nM. For the same compound, the Kd (M5 muscarinic receptor) was 251 nM, the “E′MAX” value (M5 muscarinic receptor; [3]) was 16 ± 1 fold over basal and the τ (M5 muscarinic receptor; M5 (↑IPX), preferential response, Table 7, operational efficacy) was 2.60 ± 0.30. The RAi (M5 muscarinic receptor; [4]) was 4.12 ± 0.26, the “Δlog(τ/KA)” value (M5 muscarinic receptor; M5 (↑IPX), preferential response, to carbachol, Tables 2, 3, 7) was −0.62 ± 0.07 and the “E′MAX” value (M5 muscarinic receptor; M5Gq (↑IPX), Table 8) was 16 ± 1 fold over basal. It also gave a pKA (M5 muscarinic receptor; M5Gq (↑IPX), Table 8) of 6.6 ± 0.1, a τ (M5 muscarinic receptor; M5Gq (↑IPX), Table 8) of 2.2 ± 0.3 and an RAi (M5 muscarinic receptor; M5Gq (↑IPX), Table 8, relative to carbachol) of 4.37 ± 0.29. For the same compound, the “Δlog(τ/KA)” value (M5 muscarinic receptor; M5Gq (↑IPX), Table 8, to carbachol) was −0.64, the EC50 (M5 muscarinic receptor; pEC50, M5 (↑IPX), preferential response, Table 7) was 70.8 nM and the EC50 (M5 muscarinic receptor; pEC50, M5Gq (↑IPX), Table 8) was 74.1 nM. For the same compound, the EC50 (M2 muscarinic receptor) was 5.75 nM, the Kd (M2 muscarinic receptor) was 12.6 nM and the “E′MAX” value (M2 muscarinic receptor; M2 (↓cAMP), preferential response, Table 7) was 43 ± 1 % inhibition. For the same compound, the τ (M2 muscarinic receptor; [5]) was 0.96 ± 0.08, the RAi (M2 muscarinic receptor; [6]) was 6.34 ± 0.15 and the “Δlog(τ/KA)” value (M2 muscarinic receptor; [7]) was −0.81 ± 0.01. The “E′MAX” value (M2 muscarinic receptor; M2Gi (↓cAMP), Table 8) was 43 ± 1 % inhibition, the pEC50 (M2 muscarinic receptor; M2Gi (↓cAMP), Table 8) was 8.24 ± 0.04 and the pKA (M2 muscarinic receptor; M2Gi (↓cAMP), Table 8) was 7.9 ± 0.1. The τ (M2 muscarinic receptor; M2Gi (↓cAMP), Table 8) was 1.0 ± 0.1, the RAi (M2 muscarinic receptor; M2Gi (↓cAMP), Table 8, relative to carbachol) was 6.34 ± 0.15 and the “Δlog(τ/KA)” value (M2 muscarinic receptor; M2Gi (↓cAMP), Table 8, to carbachol) was −0.81 ± 0.01. The Ki (M3 muscarinic receptor; Inhibition constants (KI) as negative logarithms, M3, high site) was 10 nM, the Ki (M3 muscarinic receptor; Inhibition constants (KI) as negative logarithms, M3, low site) was 447 nM and the Ki (M4 muscarinic receptor [1]; Inhibition constants (KI) as negative logarithms, M4, high site, reference agonists, high affinity site) was 12.6 nM. The Ki (M4 muscarinic receptor [1]; Inhibition constants (KI) as negative logarithms, M4, low site, reference agonists, low affinity site) was 617 nM, the Kd (M4 muscarinic receptor [2]) was 31.6 nM and the Emax (M4 muscarinic receptor [2]) was 48 ± 2%. For the same compound, the pEC50 (M4 muscarinic receptor [2]; M4 (↓cAMP), preferential response, Table 7) was 7.85 ± 0.04, the τ (M4 muscarinic receptor [2]; [8]) was 1.17 ± 0.08 and the RAi (M4 muscarinic receptor [2]; [9]) was 3.81 ± 0.16. The “Δlog(τ/KA)” value (M4 muscarinic receptor [2]; [10]) was −0.62 ± 0.08, the “E′MAX” value (M4 muscarinic receptor [2]; M4Gi (↓cAMP), Table 8) was 48 ± 2 % inhibition and the pEC50 (M4 muscarinic receptor [2]; M4Gi (↓cAMP), Table 8) was 7.85 ± 0.04. For the same compound, the pKA (M4 muscarinic receptor [2]; M4Gi (↓cAMP), Table 8) was 7.5 ± 0.1, the τ (M4 muscarinic receptor [2]; M4Gi (↓cAMP), Table 8) was 1.2 ± 0.1 and the RAi (M4 muscarinic receptor [2]; M4Gi (↓cAMP), Table 8, relative to carbachol) was 3.81 ± 0.16. The “Δlog(τ/KA)” value (M4 muscarinic receptor [2]; M4Gi (↓cAMP), Table 8, to carbachol) was −0.62 ± 0.08.

For `C[N+]1(Cc2ccc(Br)s2)CC=CCC1.[I-]` (stereo not drawn) [Compound 7C, 1-[(5-bromothiophen-2-yl)methyl]-1-methyl-1,2,3,6-tetrahydropyridin-1-ium iodide], the RAi (M1 muscarinic receptor) was 0.0024 ± 0.0004, the “Δlog(τ/KA)” value (M1 muscarinic receptor) was 2.62 ± 0.18 and the “E′MAX” value (M1 muscarinic receptor; M1 (↑IPX), preferential response, Table 7) was 1.8 ± 0.2 fold over basal. For the same compound, the τ (M1 muscarinic receptor; M1 (↑IPX), preferential response, Table 7, operational efficacy) was 0.02 ± 0.01, the Kd (M1 muscarinic receptor; M1 (↑IPX), preferential response, Table 7, operational model, read-out: pKA (converted)) was 2510 nM and the EC50 (M1 muscarinic receptor; M1 (↑IPX), preferential response, Table 7, read-out: pEC50 (converted)) was 2510 nM. For the same compound, the “E′MAX” value (M5 muscarinic receptor; [3]) was 1.19 ± 0.04 fold over basal, the EC50 (M5 muscarinic receptor; M5 (↑IPX), preferential response, Table 7, read-out: pEC50 (converted)) was 3160 nM and the RAi (M5 muscarinic receptor; [4]) was 0.0013 ± 0.0005. It also gave an Emax (M2 muscarinic receptor; CHO) of 38 ± 2%, a τ (M2 muscarinic receptor; [5]) of 0.76 ± 0.08 and a Kd (M2 muscarinic receptor; M2 (↓cAMP), preferential response, Table 7, operational model, read-out: pKA (converted)) of 3160 nM. The EC50 (M2 muscarinic receptor; M2 (↓cAMP), preferential response, Table 7, read-out: pEC50 (converted)) was 1620 nM, the RAi (M2 muscarinic receptor; [6]) was 0.018 ± 0.002 and the “Δlog(τ/KA)” value (M2 muscarinic receptor; [7]) was 1.69 ± 0.09. It also gave a Ki (M3 muscarinic receptor; competition with 1 nM [3H]NMS, read-out: Inhibition constants (Ki) as negative logarithms, M3 (converted)) of 2040 nM, a Ki (M4 muscarinic receptor [1]; competition with 1 nM [3H]NMS, read-out: Inhibition constants (Ki) as negative logarithms, M4 (converted)) of 1450 nM and an Emax (M4 muscarinic receptor [2]) of 11 ± 1%. It also gave a τ (M4 muscarinic receptor [2]; [8]) of 0.14 ± 0.01, a Kd (M4 muscarinic receptor [2]; M4 (↓cAMP), preferential response, Table 7, operational model, read-out: pKA (converted)) of 2510 nM and an EC50 (M4 muscarinic receptor [2]; M4 (↓cAMP), preferential response, Table 7, read-out: pEC50 (converted)) of 2400 nM. The RAi (M4 muscarinic receptor [2]; [9]) was 0.0030 ± 0.0003 and the “Δlog(τ/KA)” value (M4 muscarinic receptor [2]; [10]) was 2.26 ± 0.16.
